# According to US6602896B1, “p38MAPK inhibitor and uses thereof” (The Board of Trustees of the University of Arkansas, priority 1999, dated 2003):
# Entries after “also recorded” stand apart in the source; their conditions may differ.
# Tests used:
# p42/44^MAPK [1] = settings: even at higher concentrations (100 μM); cited from earlier work
# p42/44^MAPK [2] = test: Immunoblot of phospho-p42/44MAPK in HepG2 cells; type: cell-based, human; settings: SB202190 2.5 μM
# Description: (§1) 2×10^5 cells were grown and treated as described in FIG. 1. After the indicated times, equal amounts of cell lysates were blotted with anti-phospho-p42/44^MAPK antibody, phosphorylation-independent p42/44^MAPK antibody, anti-phospho p46/54^JNK antibody, anti-phospho-MEK-1/2, or phosphorylation-independent MKP-1.
# HepG2 cells were cultured in the absence or presence of 1 μM staurosporine or 5 μM PD98059 for 30 min. SB202190 (2.5 μM) was then added to the cells for 4 h, cell lysate was subjected to immunoblotting to measure the phosphorylation levels of p42/44^MAPK and MEK-1/2.
# Human hepatoma cell line HepG2 and its derivative HepG2-ΔRaf-1:ER cell line that stably expresses the ΔRaf-1:ER chimera were maintained as monolayer cultures in a humidified 5% CO2 atmosphere at 37° C. in Eagle's minimum essential medium (EMEM) (Bio Whittaker, Md.) supplemented with 10% fetal bovine serum (FBS) (Life Technologies Inc.), 2 mM L-glutamine, 20 units/ml penicillin and 20 μg/ml streptomycin sulphate.
# Proteins were fractionated by SDS-PAGE with an 10% acrylamide separation gel, and the separated proteins were transferred to nitrocellulose, and processed as described previously (43, 44). Briefly, membranes were incubated in 20 mM Tris-HCl, pH 7.6, 137 mM NaCl, 0.2% v/v Tween-20 (Tris/NaCl/Tween-20) with 5% w/v non-fat dried milk for 1 h, washed in Tris/NaCl/Tween-20 (3×5 min), and incubated for 1 h with primary antibody in Tris/NaCl/Tween-20 containing 1% milk at room temperature for non phospho-specific antibodies and overnight at 4° C. for phospho-specific antibodies. The following dilutions were used for individual antibodies against different proteins: p42/44^MAPK (1:1600); phosphop-42/44^MAPK (1:1000); phosphop-46/54^JNK (1:1000); phospho-p38^MAPK (1:1600); phospho-MEK-1/2 (1:1000); MKP-1 (1:1500). After further washing in Tris/NaCl/Tween-20, membranes were incubated for 1 h with horseradish peroxidase-linked anti-IgG secondary antibody (Bio-Rad, diluted 1:5000), and immunoreactive proteins were detected by ECL as described by the supplier. Quantitative analyses of protein levels were performed by densitometric scanning of the autoradiograms, and are representative of 3 or more independent experiments.
# (§2) HepG2 cells were incubated with SB202190, and the activity of p42/44^MAPK and p46/54^JNK was determined by immunoblot analysis with antibodies that recognized the activated phosphorylated forms of these kinases in cell extracts obtained at different times.
# [3] = system: p38^MAPK α- and β-isoforms; settings: cited from earlier work
# LDL receptor expression = test: Northern blotting of LDL receptor mRNA in HeLa cells; type: cell-based; settings: SB202190 (2.5 μM) 4 h
# Description: PD98059 was added 30 min prior to addition of SB202190. After the indicated times, total RNA was isolated and subjected to Northern blotting. […] Total RNA was isolated using TRIzol, and Northern blotting was done essentially as described earlier (43, 44). Briefly, 20 μg total cellular RNA was fractionated on 1% formaldehyde agarose gel and transferred to Zeta Probe membrane by capillary blotting. RNA blots were hybridized with LDL receptor and squalene synthase specific single-stranded M13 probes labeled with [α-^32P ]dCTP. Hybridized filters were washed and exposed to Kodak X-ray film. The relative intensities of specific bands were determined densitometrically within the linear range of the film on a model 300A laser densitometer (Molecular […], Calif.) with Image Quant software. LDL receptor mRNA was normalized to squalene synthase (SS) (included in this study) or to α-actin (data not shown) mRNA level, and data for each point were plotted as the percentage of LDL receptor mRNA as compared to controls.
# p46/54^JNK [4] = settings: even at higher concentrations (100 μM); cited from earlier work
# MEK-1/2 = test: Immunoblot of phospho-MEK-1/2 in HepG2 cells; type: cell-based, human; settings: SB202190 2.5 μM
# Description: as §1
# HepG2 cells were cultured in the absence or presence of 1 μM staurosporine or 5 μM PD98059 for 30 min. SB202190 (2.5 μM) was then added to the cells for 4 h, cell lysate was subjected to immunoblotting to measure the phosphorylation levels of p42/44^MAPK and MEK-1/2. […]
# (§3) Proteins were fractionated by SDS-PAGE with an 10% acrylamide separation gel, and the separated proteins were transferred to nitrocellulose, and processed as described previously (43, 44). […] After further washing in Tris/NaCl/Tween-20, membranes were incubated for 1 h with horseradish peroxidase-linked anti-IgG secondary antibody (Bio-Rad, diluted 1:5000), and immunoreactive proteins were detected by ECL as described by the supplier. Quantitative analyses of protein levels were performed by densitometric scanning of the autoradiograms, and are representative of 3 or more independent experiments.
# p46/54^JNK [5] = test: Immunoblot of phospho-p46/54JNK in HepG2 cells; type: cell-based, human; settings: SB202190 2.5 μM
# Description: 2×10^5 cells were grown and treated as described in FIG. 1. After the indicated times, equal amounts of cell lysates were blotted with anti-phospho-p42/44^MAPK antibody, phosphorylation-independent p42/44^MAPK antibody, anti-phospho p46/54^JNK antibody, anti-phospho-MEK-1/2, or phosphorylation-independent MKP-1. […]
# as §3, §2
structure (smiles),measurement,setting,value
"Oc1ccc(-c2nc(-c3ccc(F)cc3)c(-c3ccncc3)[nH]2)cc1 [SB202190, 4-(4-Fluorophenyl)-2-(4-hydroxyphenyl)-5-(4-pyridyl) 1H-imidazole]",effect on p42/44MAPK,p42/44^MAPK [1],without effect
same,activation of p42/44MAPK (phosphorylation),p42/44^MAPK [2],delayed and prolonged activation
same,effect on p42/44MAPK protein levels,p42/44^MAPK [2],no effect on p42/44^MAPK protein levels
same,time of maximal p42/44MAPK activation after stimulation,p42/44^MAPK [2],4 to 8 h
same,time of weak p42/44MAPK activation after treatment,p42/44^MAPK [2],1 h
same,time until which activated p42/44MAPK remained elevated,p42/44^MAPK [2]; 24 hours was maximum time point measured,≥ 24 h
same,inhibition of p38MAPK α- and β-isoforms,[3],selectively inhibit both p38^MAPK α- and β-isoforms; also recorded: inhibited
same,LDL receptor expression in HeLa cells,LDL receptor expression,caused a increase in LDL receptor expression
same,effect on p46/54JNK,p46/54^JNK [4],without effect
same,kinetics of MEK-1/2 phosphorylation,MEK-1/2,paralleled the appearance of p42/44^MAPK
same,effect on activity or levels of p46/54JNK,p46/54^JNK [5],little or no effect
